Test results from ChEMBL document CHEMBL4804284.

Key:
Set-up in all cases: scale not given: the % may be the effect or the level left
[1] = molecular target: Dual specificity protein kinase CLK1 (Homo sapiens) (UniProt P49759); test: Inhibition of DNA-tagged human CLK1 assessed as percent of control at 50000 nM by qPCR analysis relative to control
[2] = molecular target: Interleukin-1 receptor-associated kinase 3 (Homo sapiens) (UniProt Q9Y616); test: Inhibition of DNA-tagged human IRAK3 assessed as percent of control at 50000 nM by qPCR analysis relative to control
[3] = tested on: Tyrosine-protein kinase ABL1 (Homo sapiens), P00519 [F317I]; test: Inhibition of DNA-tagged phosphorylated human ABL1 F317I mutant assessed as percent of control at 50000 nM by qPCR analysis relative to control
[4] = molecular target: Serine/threonine-protein kinase PLK2 (Homo sapiens) (UniProt Q9NYY3); test: Inhibition of DNA-tagged human PLK2 assessed as percent of control at 50000 nM by qPCR analysis relative to control
[5] = molecular target: Tyrosine-protein kinase ITK/TSK (Homo sapiens) (UniProt Q08881); test: Inhibition of DNA-tagged human ITK assessed as percent of control at 50000 nM by qPCR analysis relative to control
Chain of Tyrosine-protein kinase ITK/TSK (Homo sapiens) (Q08881 whole entry): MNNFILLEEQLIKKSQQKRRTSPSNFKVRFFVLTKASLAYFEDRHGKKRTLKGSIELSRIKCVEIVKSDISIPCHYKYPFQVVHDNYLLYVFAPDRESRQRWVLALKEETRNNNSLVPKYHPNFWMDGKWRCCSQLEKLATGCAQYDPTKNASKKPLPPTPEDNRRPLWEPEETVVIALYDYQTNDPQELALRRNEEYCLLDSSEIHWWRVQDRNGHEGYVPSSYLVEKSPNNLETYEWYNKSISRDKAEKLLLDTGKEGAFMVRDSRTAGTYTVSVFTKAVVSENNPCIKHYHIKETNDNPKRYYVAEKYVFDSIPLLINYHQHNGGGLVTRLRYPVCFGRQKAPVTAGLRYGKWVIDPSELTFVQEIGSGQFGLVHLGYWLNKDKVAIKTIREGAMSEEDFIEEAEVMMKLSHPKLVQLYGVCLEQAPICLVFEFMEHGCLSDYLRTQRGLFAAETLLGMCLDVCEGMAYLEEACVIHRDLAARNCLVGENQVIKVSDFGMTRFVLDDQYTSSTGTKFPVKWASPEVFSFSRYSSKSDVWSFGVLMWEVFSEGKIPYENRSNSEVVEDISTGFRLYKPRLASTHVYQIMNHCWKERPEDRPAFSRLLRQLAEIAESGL

[6] = molecular target: Activin receptor type-2B (Homo sapiens) (UniProt Q13705); test: Inhibition of DNA-tagged human ACVR2B assessed as percent of control at 50000 nM by qPCR analysis relative to control
[7] = molecular target: cAMP-dependent protein kinase catalytic subunit alpha (Homo sapiens) (UniProt P17612); test: Inhibition of DNA-tagged human PKAC-alpha assessed as percent of control at 50000 nM by qPCR analysis relative to control
[8] = molecular target: Rhodopsin kinase GRK1 (Homo sapiens) (UniProt Q15835); test: Inhibition of DNA-tagged human GRK1 assessed as percent of control at 50000 nM by qPCR analysis relative to control
[9] = molecular target: Protein kinase C iota type (Homo sapiens) (UniProt P41743); test: Inhibition of DNA-tagged human PRKCI assessed as percent of control at 50000 nM by qPCR analysis relative to control
[10] = molecular target: Casein kinase I isoform gamma-3 (Homo sapiens) (UniProt Q9Y6M4); test: Inhibition of DNA-tagged human CSNK1G3 assessed as percent of control at 50000 nM by qPCR analysis relative to control
[11] = tested on: Receptor-type tyrosine-protein kinase FLT3 (Homo sapiens), P36888 [UNDEFINED MUTATION]; test: Inhibition of DNA-tagged human FLT3 ITD mutant assessed as percent of control at 50000 nM by qPCR analysis relative to control
[12] = molecular target: Serine/threonine-protein kinase 24 (Homo sapiens) (UniProt Q9Y6E0); test: Inhibition of DNA-tagged human MST3 assessed as percent of control at 50000 nM by qPCR analysis relative to control
Chain of Serine/threonine-protein kinase 24 (Homo sapiens) (Q9Y6E0 whole entry, looked up): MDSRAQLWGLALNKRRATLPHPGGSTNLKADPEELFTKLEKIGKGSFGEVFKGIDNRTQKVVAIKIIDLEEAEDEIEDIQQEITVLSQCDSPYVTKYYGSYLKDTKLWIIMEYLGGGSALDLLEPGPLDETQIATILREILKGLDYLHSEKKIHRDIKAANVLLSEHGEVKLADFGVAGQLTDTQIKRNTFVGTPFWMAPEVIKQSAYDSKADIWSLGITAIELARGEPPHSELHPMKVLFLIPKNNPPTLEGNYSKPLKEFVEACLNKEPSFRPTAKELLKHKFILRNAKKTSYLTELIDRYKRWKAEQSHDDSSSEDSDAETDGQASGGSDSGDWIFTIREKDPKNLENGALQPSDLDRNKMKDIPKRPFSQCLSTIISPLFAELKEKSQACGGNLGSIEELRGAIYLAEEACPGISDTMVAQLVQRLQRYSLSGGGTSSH

[13] = molecular target: Tyrosine-protein kinase CSK (Homo sapiens) (UniProt P41240); test: Inhibition of DNA-tagged human CSK assessed as percent of control at 50000 nM by qPCR analysis relative to control
[14] = molecular target: Tyrosine-protein kinase receptor Tie-1 (Homo sapiens) (UniProt P35590); test: Inhibition of DNA-tagged human TIE1 assessed as percent of control at 50000 nM by qPCR analysis relative to control
Chain of Tyrosine-protein kinase receptor Tie-1 (Homo sapiens) (P35590 whole entry): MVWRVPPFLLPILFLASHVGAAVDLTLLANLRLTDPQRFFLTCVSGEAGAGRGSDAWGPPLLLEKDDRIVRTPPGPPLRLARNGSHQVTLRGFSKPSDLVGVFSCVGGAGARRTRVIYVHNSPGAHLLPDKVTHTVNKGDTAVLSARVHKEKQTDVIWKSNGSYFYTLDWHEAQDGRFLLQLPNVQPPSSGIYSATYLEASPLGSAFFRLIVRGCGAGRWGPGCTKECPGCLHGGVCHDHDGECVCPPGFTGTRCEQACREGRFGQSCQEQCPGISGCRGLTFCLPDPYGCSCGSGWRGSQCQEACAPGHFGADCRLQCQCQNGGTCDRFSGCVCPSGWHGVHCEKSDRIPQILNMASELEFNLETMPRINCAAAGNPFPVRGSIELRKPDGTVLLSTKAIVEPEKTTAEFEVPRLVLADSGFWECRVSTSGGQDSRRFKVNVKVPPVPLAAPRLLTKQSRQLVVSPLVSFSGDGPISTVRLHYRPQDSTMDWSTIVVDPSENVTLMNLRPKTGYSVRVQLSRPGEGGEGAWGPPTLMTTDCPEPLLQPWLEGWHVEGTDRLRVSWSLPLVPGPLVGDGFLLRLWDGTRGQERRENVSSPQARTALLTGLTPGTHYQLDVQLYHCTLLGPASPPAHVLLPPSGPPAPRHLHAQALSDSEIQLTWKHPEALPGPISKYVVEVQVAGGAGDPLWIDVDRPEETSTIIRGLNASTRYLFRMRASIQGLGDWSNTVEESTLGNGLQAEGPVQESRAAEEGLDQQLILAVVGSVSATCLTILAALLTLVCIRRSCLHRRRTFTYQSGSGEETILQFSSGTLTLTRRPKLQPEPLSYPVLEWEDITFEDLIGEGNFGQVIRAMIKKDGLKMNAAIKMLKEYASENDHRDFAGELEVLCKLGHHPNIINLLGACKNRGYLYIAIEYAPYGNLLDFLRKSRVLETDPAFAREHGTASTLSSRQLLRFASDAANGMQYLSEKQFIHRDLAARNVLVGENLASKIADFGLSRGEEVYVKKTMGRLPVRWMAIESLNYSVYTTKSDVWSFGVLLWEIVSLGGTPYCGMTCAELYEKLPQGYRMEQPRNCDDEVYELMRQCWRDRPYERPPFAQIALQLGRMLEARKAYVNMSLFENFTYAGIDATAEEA

[15] = molecular target: Myosin-IIIb (Homo sapiens) (UniProt Q8WXR4); test: Inhibition of DNA-tagged human MYO3B assessed as percent of control at 50000 nM by qPCR analysis relative to control
[16] = molecular target: RAF proto-oncogene serine/threonine-protein kinase (Homo sapiens) (UniProt P04049); test: Inhibition of DNA-tagged human RAF1 assessed as percent of control at 50000 nM by qPCR analysis relative to control
[17] = molecular target: Serine/threonine-protein kinase RIO1 (Homo sapiens) (UniProt Q9BRS2); test: Inhibition of DNA-tagged human RIOK1 assessed as percent of control at 50000 nM by qPCR analysis relative to control
[18] = molecular target: Serine/threonine-protein kinase MARK2 (Homo sapiens) (UniProt Q7KZI7); test: Inhibition of DNA-tagged human MARK2 assessed as percent of control at 50000 nM by qPCR analysis relative to control
[19] = molecular target: Myosin light chain kinase family member 4 (Homo sapiens) (UniProt Q86YV6); test: Inhibition of DNA-tagged human MYLK4 assessed as percent of control at 50000 nM by qPCR analysis relative to control
Chain of Myosin light chain kinase family member 4 (Homo sapiens) (Q86YV6 whole entry): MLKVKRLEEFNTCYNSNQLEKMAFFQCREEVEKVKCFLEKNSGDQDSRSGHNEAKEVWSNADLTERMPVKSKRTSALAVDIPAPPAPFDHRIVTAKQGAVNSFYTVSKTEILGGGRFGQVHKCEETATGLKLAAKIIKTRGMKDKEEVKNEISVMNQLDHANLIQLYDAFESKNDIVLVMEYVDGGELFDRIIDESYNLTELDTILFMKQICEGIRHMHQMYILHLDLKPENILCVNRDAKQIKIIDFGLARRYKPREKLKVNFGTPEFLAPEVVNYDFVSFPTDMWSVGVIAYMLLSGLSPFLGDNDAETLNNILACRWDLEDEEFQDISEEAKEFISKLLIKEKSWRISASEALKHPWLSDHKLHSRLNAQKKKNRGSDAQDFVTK

[20] = molecular target: Mitogen-activated protein kinase 14 (Homo sapiens) (UniProt Q16539); test: Inhibition of DNA-tagged human p38-alpha assessed as percent of control at 50000 nM by qPCR analysis relative to control
[21] = molecular target: Serine/threonine-protein kinase 32B (Homo sapiens) (UniProt Q9NY57); test: Inhibition of DNA-tagged human YANK2 assessed as percent of control at 50000 nM by qPCR analysis relative to control
[22] = molecular target: Activated CDC42 kinase 1 (Homo sapiens) (UniProt Q07912); test: Inhibition of DNA-tagged human TNK2 assessed as percent of control at 50000 nM by qPCR analysis relative to control
[23] = molecular target: Serine/threonine-protein kinase SIK1 (Homo sapiens) (UniProt P57059); test: Inhibition of DNA-tagged human SIK assessed as percent of control at 50000 nM by qPCR analysis relative to control
Chain of Serine/threonine-protein kinase SIK1 (Homo sapiens) (P57059 whole entry): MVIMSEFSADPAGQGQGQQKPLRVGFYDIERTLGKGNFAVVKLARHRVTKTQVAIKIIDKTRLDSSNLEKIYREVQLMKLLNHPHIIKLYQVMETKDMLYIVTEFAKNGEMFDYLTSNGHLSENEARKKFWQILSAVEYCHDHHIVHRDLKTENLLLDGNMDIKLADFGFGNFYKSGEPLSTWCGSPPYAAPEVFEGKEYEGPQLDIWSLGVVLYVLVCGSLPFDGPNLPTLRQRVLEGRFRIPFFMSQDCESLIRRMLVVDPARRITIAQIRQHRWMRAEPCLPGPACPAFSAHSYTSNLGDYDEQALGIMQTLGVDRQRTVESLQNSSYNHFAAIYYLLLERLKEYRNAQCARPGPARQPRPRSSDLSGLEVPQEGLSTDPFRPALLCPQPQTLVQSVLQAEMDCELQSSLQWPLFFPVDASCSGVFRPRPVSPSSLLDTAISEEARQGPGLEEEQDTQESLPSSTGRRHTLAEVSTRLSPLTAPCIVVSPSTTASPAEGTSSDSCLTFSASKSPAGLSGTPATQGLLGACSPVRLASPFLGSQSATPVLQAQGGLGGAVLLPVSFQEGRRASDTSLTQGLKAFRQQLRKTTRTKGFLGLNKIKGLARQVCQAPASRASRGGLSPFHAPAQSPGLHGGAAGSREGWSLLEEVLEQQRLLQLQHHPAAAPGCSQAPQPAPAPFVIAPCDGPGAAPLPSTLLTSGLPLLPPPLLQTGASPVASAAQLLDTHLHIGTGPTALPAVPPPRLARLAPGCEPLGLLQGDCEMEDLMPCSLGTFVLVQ

[24] = molecular target: Serine/threonine-protein kinase TAO2 (Homo sapiens) (UniProt Q9UL54); test: Inhibition of DNA-tagged human TAOK2 assessed as percent of control at 50000 nM by qPCR analysis relative to control
[25] = molecular target: Cyclin-dependent kinase 13 (Homo sapiens) (UniProt Q14004); test: Inhibition of DNA-tagged human CDC2L5 assessed as percent of control at 50000 nM by qPCR analysis relative to control
[26] = molecular target: Serine/threonine-protein kinase ULK1 (Homo sapiens) (UniProt O75385); test: Inhibition of DNA-tagged human ULK1 assessed as percent of control at 50000 nM by qPCR analysis relative to control
[27] = molecular target: Dual serine/threonine and tyrosine protein kinase (Homo sapiens) (UniProt Q6XUX3); test: Inhibition of DNA-tagged human RIPK5 assessed as percent of control at 50000 nM by qPCR analysis relative to control
Chain of Dual serine/threonine and tyrosine protein kinase (Homo sapiens) (Q6XUX3 whole entry): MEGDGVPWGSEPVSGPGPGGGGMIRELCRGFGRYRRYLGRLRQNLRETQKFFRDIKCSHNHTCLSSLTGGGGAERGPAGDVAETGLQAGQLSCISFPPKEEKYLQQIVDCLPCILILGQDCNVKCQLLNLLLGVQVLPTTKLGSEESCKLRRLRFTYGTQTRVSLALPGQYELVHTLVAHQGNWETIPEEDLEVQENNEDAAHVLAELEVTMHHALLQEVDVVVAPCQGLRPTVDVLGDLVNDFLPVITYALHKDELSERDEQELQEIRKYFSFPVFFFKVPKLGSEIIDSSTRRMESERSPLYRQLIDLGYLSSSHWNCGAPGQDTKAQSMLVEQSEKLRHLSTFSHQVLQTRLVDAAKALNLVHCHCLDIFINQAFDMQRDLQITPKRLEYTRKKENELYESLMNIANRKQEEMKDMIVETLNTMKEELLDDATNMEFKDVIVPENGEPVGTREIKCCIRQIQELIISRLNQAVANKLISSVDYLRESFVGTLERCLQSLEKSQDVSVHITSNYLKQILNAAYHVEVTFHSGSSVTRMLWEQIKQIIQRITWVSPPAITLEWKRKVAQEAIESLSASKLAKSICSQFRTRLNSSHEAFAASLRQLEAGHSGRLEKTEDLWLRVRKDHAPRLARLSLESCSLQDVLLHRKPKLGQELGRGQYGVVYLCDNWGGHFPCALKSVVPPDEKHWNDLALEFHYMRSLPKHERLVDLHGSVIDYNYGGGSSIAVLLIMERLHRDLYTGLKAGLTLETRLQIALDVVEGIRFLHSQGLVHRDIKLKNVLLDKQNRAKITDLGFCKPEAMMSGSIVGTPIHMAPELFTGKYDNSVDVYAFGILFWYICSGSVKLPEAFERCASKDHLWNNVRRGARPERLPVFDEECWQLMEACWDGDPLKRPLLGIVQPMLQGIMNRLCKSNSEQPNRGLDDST

[28] = molecular target: TGF-beta receptor type-1 (Homo sapiens) (UniProt P36897); test: Inhibition of DNA-tagged human TGFBR1 assessed as percent of control at 50000 nM by qPCR analysis relative to control
[29] = molecular target: Calcium/calmodulin-dependent protein kinase type 1G (Homo sapiens) (UniProt Q96NX5); test: Inhibition of DNA-tagged human CAMK1G assessed as percent of control at 50000 nM by qPCR analysis relative to control
[30] = molecular target: Phosphorylase b kinase gamma catalytic chain, skeletal muscle/heart isoform (Homo sapiens) (UniProt Q16816); test: Inhibition of DNA-tagged human PHKG1 assessed as percent of control at 50000 nM by qPCR analysis relative to control

Chain of Dual specificity protein kinase CLK1 (Homo sapiens) (P49759 whole entry, looked up): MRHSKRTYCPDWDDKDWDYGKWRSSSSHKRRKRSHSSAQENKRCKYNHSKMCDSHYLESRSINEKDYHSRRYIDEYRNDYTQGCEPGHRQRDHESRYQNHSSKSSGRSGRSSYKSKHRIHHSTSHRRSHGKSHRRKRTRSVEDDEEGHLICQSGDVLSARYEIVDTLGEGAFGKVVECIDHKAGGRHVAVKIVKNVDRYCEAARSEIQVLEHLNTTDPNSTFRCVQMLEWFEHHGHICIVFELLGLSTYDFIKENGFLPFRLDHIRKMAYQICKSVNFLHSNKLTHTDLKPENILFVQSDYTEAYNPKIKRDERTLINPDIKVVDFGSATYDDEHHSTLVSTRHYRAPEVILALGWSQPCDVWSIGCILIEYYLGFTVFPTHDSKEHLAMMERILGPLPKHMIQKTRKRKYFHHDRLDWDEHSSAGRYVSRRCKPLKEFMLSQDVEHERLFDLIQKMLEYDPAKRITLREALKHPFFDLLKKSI

What does the source list for `CN1C(=O)/C(=C2/C(=O)Nc3ccccc32)c2ccccc21`?
Activity [1]: 100%; Activity [2]: 90%; Activity [3]: 100%; Activity [4]: 94%; Activity [5]: 78%; Activity [6]: 100%; Activity [7]: 93%; Activity [8]: 100%; Activity [9]: 100%; Activity [10]: 90%; Activity [11]: 76%; Activity [12]: 88%; Activity [13]: 100%; Activity [14]: 88%; Activity [15]: 100%; Activity [16]: 100%; Activity [17]: 87%; Activity [18]: 75%; Activity [19]: 87%; Activity [20]: 100%; Activity [21]: 100%; Activity [22]: 93%; Activity [23]: 93%; Activity [24]: 84%; Activity [25]: 100%; Activity [26]: 68%; Activity [27]: 92%; Activity [28]: 100%; Activity [29]: 85%; Activity [30]: 97%
